Reference: article PMC10591299, “Targeting SHP2 with an Active Site Inhibitor Blocks Signaling and Breast Cancer Cell Phenotypes” (ACS Bio & Med Chem Au, 2023)

How the values were obtained:
MDA-MB468 cells [1] = assay: Basal pAkt and pERK1/2 signaling by immunoblotting in MDA-MB468 cells; type: cell-based; settings: Homo sapiens, MDA-MB-468; MDA-MB468, 48 h treatment, band density pAkt and pERK1/2; read-out: IC50 for SHP2 mediated Akt and ERK1/2 activation
Description: Since SHP2 is an essential mediator of mitogenic and cell survival signaling in breast cancer cells, we determined the effect of CNBCA treatment on activation of ERK1/2 and Akt in the HER2-positive BT474 and in the triple-negative MDA-MB468 cell lines. Cells growing in 2D culture were treated with varying concentrations of CNBCA, ranging from 0.250 to 2.0 μM, for 48 h, and total cell lysates were analyzed by immunoblotting (IB) with antibodies that recognize the activated forms of ERK1/2 (pERK1/2) and Akt (pAkt).

SHP2 = target: T1, SHP2 (Homo sapiens, UniProt Q06124); assay: Cellular thermal shift assay (CETSA), SHP2 immunoblot; type: binding; settings: 100 μM CNBCA, cell lysate
T1 construct: endogenous in cells
T1 sequence (Q06124 1-593): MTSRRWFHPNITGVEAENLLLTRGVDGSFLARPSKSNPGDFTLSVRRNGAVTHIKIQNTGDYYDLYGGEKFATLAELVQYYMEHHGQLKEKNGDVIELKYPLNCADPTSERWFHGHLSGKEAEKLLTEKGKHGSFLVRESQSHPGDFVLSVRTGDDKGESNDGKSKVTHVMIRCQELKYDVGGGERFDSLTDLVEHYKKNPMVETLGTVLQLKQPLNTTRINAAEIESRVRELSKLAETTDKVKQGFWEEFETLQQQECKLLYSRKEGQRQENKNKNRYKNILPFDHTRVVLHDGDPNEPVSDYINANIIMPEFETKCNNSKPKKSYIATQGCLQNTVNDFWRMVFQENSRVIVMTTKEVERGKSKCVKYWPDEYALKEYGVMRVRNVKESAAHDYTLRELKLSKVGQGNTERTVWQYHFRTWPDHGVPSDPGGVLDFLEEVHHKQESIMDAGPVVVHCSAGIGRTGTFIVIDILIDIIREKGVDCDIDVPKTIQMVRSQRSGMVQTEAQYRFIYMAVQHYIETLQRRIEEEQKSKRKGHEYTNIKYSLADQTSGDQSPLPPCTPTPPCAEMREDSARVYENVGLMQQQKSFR
Source text: First, we used the cellular thermal shift assay (CETSA) to show whether CNBCA binds to endogenous full-length SHP2 under cellular contexts. The CETSA assay is based on the principle that specific inhibitors bind to a target protein and confer relative stability from heat-induced denaturation and precipitation when compared to a nontarget protein present in the same milieu.[34] Accordingly, we performed CETSA to test the effect of CNBCA on the SHP2 protein stability and compared it with the nontarget PTP1B protein as described in the materials and methods.
After heat treatment, supernatants were analyzed by immunoblotting (IB) for SHP2 and the nontarget phosphatase PTP1B. […] To provide semiquantitative data, band densities of both SHP2 and PTP1B were measured and presented as bar graph. […] On the other hand, the nontarget protein PTP1B was reduced to approximately 50% at 49 °C, to 25% at 55 °C, and to less than 10% at 58 °C (Figure 3B and D).
For the CETSA study, total protein extracts (TPE) prepared from two breast cancer cells, the triple-negative MDA-MB468 and the HER2-positive JIMT-1 cells, were used. Briefly, TPE from the two cell lines were cleared by centrifugation, mixed with CNBCA at 100 μM concentration (the maximum amount used in the IC50 studies), and incubated for 10 min at room temperature to allow binding. The mixture was then divided into 100 μL aliquots, treated with heat for 10 min at different temperatures, ranging from 37 to 64 °C that differ by 3 °C intervals, cooled on ice for 10 min, centrifuged at 20,000g for 20 min to remove precipitated proteins, and the supernatants analyzed by immunoblotting (IB) for SHP2 and the nontarget PTP, PTP1B. Aliquots that were mixed with CNBCA, but not treated with heat were used as positive controls for comparison.

MDA-MB468 cells [2] = assay: Mammosphere formation in suspension culture, MDA-MB468; type: cell-based; settings: MDA-MB468, 500 nM, 10 days, versus vehicle
Description: Since SHP2 is essential for the growth and transformation of BC cells,[8],[9],[11] we determined the effect of SHP2 inhibition with CNBCA in 2D and 3D culture systems. For the effect on cell growth, BC cells (BT474 and MDA-MB468) were seeded in 2D culture and treated with a single concentration of CNBCA (500 nM), the concentration that provided a 50% inhibition of SHP2 mediated signaling in BT474 cells. Images were collected at the start and every 24 h for a total of 72 h (3 days). […] For effect on anchorage independent growth, approximately 10^6 cells were seeded in soft agar as described previously,[24] and treated with CNBCA at 500 nM concentration for 10 days with refeeding and adjustment of compound concentration. […] Finally, the effect of CNBCA on cancer stem cell properties was determined by the suspension assay, in which only cells with stem-like properties only can grow and form mammospheres.[7],[24],[36] Approximately 10^6 cells were seeded in nonadherent 6 cm plates and treated with CNBCA (500 nM) for 10 days with complementation of media and drug concentration.
To further evaluate the anti-breast cancer cell effect of CNBCA, we treated cells seeded in a suspension culture known as the mammosphere assay. In this assay, cells with cancer stem cell properties can grow and form sphere-like cellular aggregates known as mammospheres.[7],[38] […]

SMILES: CCCCCCCCCOc1ccc(-c2ccc(C(=O)O)cc2)cc1CCCC(=O)O [CNBCA, 3′-(3-carboxypropyl)-4′-(nonyloxy)-[1,1′-biphenyl]-4-carboxylic acid]
- IC50 (MDA-MB468 cells [1]): ~1 µM
- SHP2 stabilized in solution (band density) (SHP2; heat 49 °C 10 min): ~100%
- SHP2 stabilized in solution (band density) (SHP2; heat 52 °C 10 min): 95%
- SHP2 stabilized in solution (band density) (SHP2; heat 55 °C 10 min): 70%
- SHP2 stabilized in solution (band density) (SHP2; heat 58 °C 10 min): 45%
- mammosphere formation (MDA-MB468 cells [2]): fewer and smaller mammospheres
